Our source for the IC90, IC50 and AC50 values is ChEMBL document CHEMBL1201862, “PubChem BioAssay data set” (2004).

Assay [1] in a line: inhibitors of non-replicating M. tuberculosis, dose response, luciferase, dry powder (AID 651620). Particulars: Mycobacterium tuberculosis. It counts as functional.
Assay [2] in a line: growth inhibition of replicating M. tuberculosis, dose response, counter-screen, dry powder, IC90 (AID 651617). It counts as functional. Particulars: Mycobacterium tuberculosis. For orientation: A counterscreen serves to expose hits that act by an unwanted route or on another target.
Assay [3] can be described thus: inhibitors of non-replicating M. tuberculosis, dose response, luciferase, dry powder (AID 651619). The format is functional. Particulars: Mycobacterium tuberculosis.
In assay [4] the target is T1, Fibrinogen beta chain (Homo sapiens, UniProt P02675). Description: Fluorescence polarization-based biochemical high throughput dose response assay to identify inhibitors that disrupt the binding of a cyclic peptide (Tn7) to the fibrin proteolytic product D-Dimer and fragment E complex [DD(E )]. (In general: Fluorescence polarisation rises when a labelled molecule tumbles more slowly, as on binding a larger partner.)
T1 sequence (P02675 whole entry, the tested form may be a part): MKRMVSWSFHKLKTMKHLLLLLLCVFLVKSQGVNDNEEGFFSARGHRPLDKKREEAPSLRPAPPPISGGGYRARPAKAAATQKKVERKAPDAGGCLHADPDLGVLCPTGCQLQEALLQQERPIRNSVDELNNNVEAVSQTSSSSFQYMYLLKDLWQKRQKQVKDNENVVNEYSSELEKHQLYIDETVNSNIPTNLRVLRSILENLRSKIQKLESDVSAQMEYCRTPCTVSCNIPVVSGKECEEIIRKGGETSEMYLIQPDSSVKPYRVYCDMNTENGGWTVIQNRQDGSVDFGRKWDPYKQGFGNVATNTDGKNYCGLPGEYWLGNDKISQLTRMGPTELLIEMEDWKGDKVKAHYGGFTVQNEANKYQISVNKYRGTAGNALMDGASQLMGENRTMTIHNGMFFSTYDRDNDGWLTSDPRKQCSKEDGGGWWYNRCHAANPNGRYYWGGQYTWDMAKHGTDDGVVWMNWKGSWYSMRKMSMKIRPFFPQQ

Assay [5] has as its target T1, Fibrinogen beta chain. In words: Fluorescence polarization-based biochemical high throughput dose response assay to identify inhibitors that disrupt the binding of a cyclic peptide (Tn6) to the fibrin proteolytic product D-Dimer and fragment E complex [DD(E )].
Assay [6] can be described thus: Late stage assay provider results from the probe development effort to identify inhibitors of the Plasmodium falciparum M18 Aspartyl Aminopeptidase (M18AAP): radiolabel-based cell-based dose response assay to identify compounds that inhibit P. falciparum growth in RBCs, Set 2.. The format is functional.
In assay [7] the target is COUP transcription factor 2 (Homo sapiens, UniProt P24468). Description: Luminescence-based cell-based high throughput dose response assay to identify inhibitors of COUP-TFII (NR2F2). It counts as functional.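 Further: HEK293 cells transiently cotransfected with COUP-TFII expression vector and reporter; luciferase reporter luminescence driven by COUP-TFII from the pX2-168 reporter plasmid.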
COUP transcription factor 2, sequence (P24468 whole entry): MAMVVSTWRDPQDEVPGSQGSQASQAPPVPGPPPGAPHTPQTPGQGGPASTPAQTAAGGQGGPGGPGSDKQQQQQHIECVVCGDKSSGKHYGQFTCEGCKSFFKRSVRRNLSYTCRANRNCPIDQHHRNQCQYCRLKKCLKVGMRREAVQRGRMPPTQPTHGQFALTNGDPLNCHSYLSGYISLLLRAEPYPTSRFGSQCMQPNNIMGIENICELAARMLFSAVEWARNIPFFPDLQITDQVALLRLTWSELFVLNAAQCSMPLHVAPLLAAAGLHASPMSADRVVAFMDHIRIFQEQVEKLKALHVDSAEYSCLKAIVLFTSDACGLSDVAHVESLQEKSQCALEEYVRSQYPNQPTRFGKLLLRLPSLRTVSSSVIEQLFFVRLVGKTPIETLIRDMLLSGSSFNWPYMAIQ
A short description of assay [8]: loss of viability in HepG2 cells – cell-based, CellTiter-Glo, cherry-picked, cytotoxicity control for Shn3 inhibitor project, dose response (AID 624134). The format is functional. (In ATP-based viability assays light output follows the ATP content of the culture.)
The test system of a further assay is INS1. Description: INS-1E survival protection against cytokine death – cell-based, luminescence, retest, dose response (AID 449756).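 Further: cell death triggered by IL-1 beta plus TNF-alpha plus IFN-gamma mixture; protective hits raise ATP signal compared with cytokine alone wells.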 Particulars: Rattus norvegicus. The format is functional.
The nature of assay [9]: non-specific 3'UTR reporter inhibition in Clone20-Shn3RL – cell-based, Renilla luciferase, cherry-picked, counter-screen for Shn3 inhibitor project, dose response (AID 624133). It counts as functional.
Another assay concerns the target Protein Wnt-3a (Mus musculus, UniProt P27467). In words: antagonism of Wnt3a pathway luciferase reporter – Wnt-LIGHT cells, luminescence, selectivity assay for Gli-SUFU antagonist project, dose response (AID 651570).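 Further: Wnt-LIGHT reporter cells stimulated with conditioned medium from Wnt3a-producing cells.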 Particulars: read-out: IC50_Mean. The format is functional.
Assay [10] in a line: reduction of Shn3 3'UTR-driven luciferase in osteoblasts – cell-based, Clone20 osteoblasts, firefly luciferase, cherry-picked, dose response (AID 624132).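 Further: firefly luciferase luminescence from reporter carrying the Shn3 3'UTR in osteoblasts.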 It counts as functional.
Assay [11] is described as follows: viability loss in A549 lung cells – cell-based, 24 h, CellTiter-Glo luminescence, cherry-picks, cytotoxicity control, dose response (AID 1053115). Particulars: A549, 24 h. The format is functional.

Active and inactive are the calls of the source. Bounds are passed on as bounds.

Protein Wnt-3a, sequence (P27467 whole entry): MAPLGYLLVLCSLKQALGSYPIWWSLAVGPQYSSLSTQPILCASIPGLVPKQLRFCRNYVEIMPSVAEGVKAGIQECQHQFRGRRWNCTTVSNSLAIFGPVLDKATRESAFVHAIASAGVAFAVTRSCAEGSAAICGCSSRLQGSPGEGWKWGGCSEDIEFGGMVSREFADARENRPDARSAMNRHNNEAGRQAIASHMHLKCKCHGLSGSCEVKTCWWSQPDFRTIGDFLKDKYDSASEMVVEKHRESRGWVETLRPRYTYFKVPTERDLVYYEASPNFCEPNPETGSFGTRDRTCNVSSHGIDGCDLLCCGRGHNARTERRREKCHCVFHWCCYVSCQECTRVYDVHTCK

Take `Fc1ccc(-c2nnc(SCc3ccccn3)o2)cc1`: the results for the 90% effect concentration (IC90) in assay [1], in assay [2] and in assay [3] were 4000 nM (active), 62000 nM (active) and 4000 nM (active), respectively.
With `Cc1cc2c(cc1S(=O)(=O)N1CCN(c3cccc(C)c3C)CC1)OCCN2C`, the IC50 was > 83300 nM (inactive) on Fibrinogen beta chain [4] and 10100 nM (inactive) on Fibrinogen beta chain [5].
With `COc1cc(Br)c(CCNc2ccnc3ccccc23)cc1OC`, the IC50 in assay [6] was 450 nM (active).
For the compound `O=C(c1cc(COc2cccc3cnccc23)on1)N1CCCC(CCCO)C1` (stereo not drawn), the IC50 was 2580 nM (active) in assay [7] and 338 nM (active) on Protein Wnt-3a. In addition, the half-maximal activity concentration (AC50) was 1980 nM (active) in assay [8], 1410 nM (active) in the assay with INS1, 1140 nM (active) in assay [9] and 519 nM (active) in [10].
As for `O=C(Nc1ccc2c(c1)[C@@H]1C[C@@H](CC(=O)N3CCc4ccccc4C3)O[C@@H](CO)[C@@H]1O2)Nc1ccccc1F`, the AC50 in assay [11] is > 60000 nM (inactive).

As a reminder, the IC90 is the concentration needed for an effect of 90%. Usually AC50 stands for the midpoint of the concentration-response curve, whichever way the signal moves.
